Where two headings read alike, the source gives them in different places.

In one assay the target is T1, human SST-R1 (Homo sapiens, UniProt P30872).
T1 construct: expressed in transfected cells; host or cells: CHO cells
Put plainly: Inhibition of 125I-Tyr11-SRIF binding to cloned human SST-R1 membranes. The settings on record: human cloned receptor; read-out: Concentration (nM) of SST analogs to inhibit SRIF binding by 50%, SST-R 1. Here is the method:
(§1) The SST analogs were tested for their potency in inhibition of the binding of ^125I-Tyr^11-SRIF (based on the method described by Raynor et. al., Molecular Pharmacology 43: 838, 1993) to membrane preparations expressing the transmembranal SST receptors (SST-R1, 2, 3, 4 or 5). The receptor preparations used for these tests were either from the cloned human receptors selectively and stably expressed in Chinese Hamster Ovary (CHO) cells or from cell lines naturally expressing the SST-Rs. […] The binding reactions were filtered, the filters were washed and the bound radioactivity was counted in β counter after addition of scintillation solution.

The next assay has as its target T2, human SST-R4 (Homo sapiens, UniProt P31391).
T2 construct: expressed in transfected cells; host or cells: CHO cells
The assay is described as follows: Inhibition of 125I-Tyr11-SRIF binding to cloned human SST-R4 membranes. The conditions noted are these: human cloned receptor; read-out: Concentration (nM) of SST analogs to inhibit SRIF binding by 50%, SST-R 4. The method, then:
as §1

The target of the next assay is T3, human cloned SST-R2 (Homo sapiens, UniProt P30874).
T3 construct: expressed in transfected cells; host or cells: CHO cells
T3 sequence (P30874 whole entry): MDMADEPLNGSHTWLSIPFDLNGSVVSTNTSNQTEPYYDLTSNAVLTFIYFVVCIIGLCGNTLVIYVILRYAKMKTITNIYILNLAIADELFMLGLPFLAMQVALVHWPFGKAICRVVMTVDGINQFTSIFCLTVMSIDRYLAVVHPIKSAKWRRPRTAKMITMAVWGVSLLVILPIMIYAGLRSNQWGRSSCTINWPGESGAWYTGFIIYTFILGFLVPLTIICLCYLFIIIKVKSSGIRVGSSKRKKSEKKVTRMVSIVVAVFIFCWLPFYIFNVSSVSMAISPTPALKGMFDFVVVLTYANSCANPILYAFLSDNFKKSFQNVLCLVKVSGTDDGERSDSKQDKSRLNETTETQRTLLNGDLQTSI
The assay is described as follows: Inhibition of 125I-Tyr11-SRIF binding to cloned human SST-R2 membranes (CHO cells). The settings on record: human cloned receptor; read-out: Concentration (nM) of SST analogs to inhibit SRIF binding by 50%, SST-R 2. The method, then: as §1

The next assay concerns the target T4, human SST-R5 (Homo sapiens, UniProt P35346).
T4 construct: expressed in transfected cells; host or cells: CHO cells
Put plainly: Inhibition of 125I-Tyr11-SRIF binding to cloned human SST-R5 membranes. The conditions noted are these: human cloned receptor; read-out: Concentration (nM) of SST analogs to inhibit SRIF binding by 50%, SST-R 5. The method, then:
as §1

In the next assay the target is T5, human SST-R3 (Homo sapiens, UniProt P32745).
T5 construct: expressed in transfected cells; host or cells: CHO cells
T5 sequence (P32745 whole entry): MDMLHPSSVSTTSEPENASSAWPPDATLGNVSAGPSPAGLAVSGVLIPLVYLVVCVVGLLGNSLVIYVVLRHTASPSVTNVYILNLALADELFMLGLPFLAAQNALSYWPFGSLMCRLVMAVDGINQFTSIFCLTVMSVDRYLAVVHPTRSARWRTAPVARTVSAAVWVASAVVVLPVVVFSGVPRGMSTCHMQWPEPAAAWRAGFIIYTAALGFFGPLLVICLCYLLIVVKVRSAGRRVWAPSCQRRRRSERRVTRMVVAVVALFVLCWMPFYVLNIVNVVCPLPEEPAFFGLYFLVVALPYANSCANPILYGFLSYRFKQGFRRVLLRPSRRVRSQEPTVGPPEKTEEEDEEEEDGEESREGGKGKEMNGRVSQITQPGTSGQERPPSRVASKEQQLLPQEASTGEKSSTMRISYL
The assay is described as follows: Inhibition of 125I-Tyr11-SRIF binding to cloned human SST-R3 membranes. The conditions noted are these: human cloned receptor; read-out: Concentration (nM) of SST analogs to inhibit SRIF binding by 50%, SST-R 3. Here is the method: as §1

The target in the next assay is T6, rat SST-R5 (Rattus norvegicus, UniProt P30938).
T6 sequence (P30938 1-363): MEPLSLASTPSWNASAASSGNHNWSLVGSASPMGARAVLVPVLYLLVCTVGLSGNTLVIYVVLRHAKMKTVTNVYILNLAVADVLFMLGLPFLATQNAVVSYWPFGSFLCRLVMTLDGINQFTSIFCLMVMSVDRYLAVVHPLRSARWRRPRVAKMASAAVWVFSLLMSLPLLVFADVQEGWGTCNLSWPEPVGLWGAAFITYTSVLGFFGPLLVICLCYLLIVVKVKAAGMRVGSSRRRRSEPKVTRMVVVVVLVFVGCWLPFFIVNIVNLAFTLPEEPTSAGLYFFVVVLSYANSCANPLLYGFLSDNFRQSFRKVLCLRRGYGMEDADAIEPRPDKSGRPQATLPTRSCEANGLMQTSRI
Put plainly: Subtype selectivity binding, rat SST-R5. The method, then: as §1
(§2) MPS-30012-02, 30012-08 and 30012-24 were all re-synthesized naked, purified and radiolabelled with ^99mTc. In vitro binding studies on all three ^99mTc compounds was performed. 30012-05, 30012-08 and 30012-24 were screened for subtype selectivity analysis.

The next assay has as its target rat SST-R4 (Rattus norvegicus, UniProt P30937). Put plainly: Subtype selectivity binding, rat SST-R4. Here is the method: as §1, §2
A further assay has as its target rat SST-R2 (Rattus norvegicus, UniProt P30680). Put plainly: Subtype selectivity binding, rat SST-R2. Here is the method:
as §1, §2

In the next assay the target is rat SST-R3 (Rattus norvegicus, UniProt P30936). The assay is described as follows: Subtype selectivity binding, rat SST-R3. Here is the method: as §1, §2
rat SST-R3, sequence (P30936 whole entry): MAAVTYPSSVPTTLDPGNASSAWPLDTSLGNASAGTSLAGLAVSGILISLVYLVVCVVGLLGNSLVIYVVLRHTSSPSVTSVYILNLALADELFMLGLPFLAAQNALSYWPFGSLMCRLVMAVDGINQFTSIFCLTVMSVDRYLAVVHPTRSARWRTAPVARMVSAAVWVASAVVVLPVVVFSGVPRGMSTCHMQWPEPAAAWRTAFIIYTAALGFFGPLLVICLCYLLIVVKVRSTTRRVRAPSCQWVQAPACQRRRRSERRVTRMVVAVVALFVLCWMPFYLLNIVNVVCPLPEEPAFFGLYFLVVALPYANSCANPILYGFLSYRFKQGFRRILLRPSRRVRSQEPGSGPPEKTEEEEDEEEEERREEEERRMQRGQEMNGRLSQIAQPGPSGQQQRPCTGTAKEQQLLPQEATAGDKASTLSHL
The next assay concerns the target rat SST-R1 (Rattus norvegicus, UniProt P28646). The assay is described as follows: Subtype selectivity binding, rat SST-R1. Here is the method: as §1, §2
Where [1] appears, read: # rows: determined in rat somatostatin receptors, read-out: Concentration (nM) of SST analogs to inhibit SRIF binding by 50%, SST-R 5.
Where [2] appears, read: rat SST-R5, read-out: Selectivity: IC50, nM, rat SST-R-5.
[3] abbreviates: # rows: determined in rat somatostatin receptors, read-out: Concentration (nM) of SST analogs to inhibit SRIF binding by 50%, SST-R 4.
The mark [4] stands for this setting: rat SST-R4, read-out: Selectivity: IC50, nM, rat SST-R-4.
Setting [5] is: # rows: determined in rat somatostatin receptors, read-out: Concentration (nM) of SST analogs to inhibit SRIF binding by 50%, SST-R 2.
Setting [6] is: rat SST-R2, read-out: Selectivity: IC50, nM, rat SST-R-2.
The mark [7] stands for this setting: # rows: determined in rat somatostatin receptors, read-out: Concentration (nM) of SST analogs to inhibit SRIF binding by 50%, SST-R 3.
The mark [8] stands for this setting: rat SST-R3, read-out: Selectivity: IC50, nM, rat SST-R-3.
Where [9] appears, read: # rows: determined in rat somatostatin receptors, read-out: Concentration (nM) of SST analogs to inhibit SRIF binding by 50%, SST-R 1.
Setting [10] is: rat SST-R1, read-out: Selectivity: IC50, nM, rat SST-R-1.

rat SST-R1, sequence (P28646 whole entry): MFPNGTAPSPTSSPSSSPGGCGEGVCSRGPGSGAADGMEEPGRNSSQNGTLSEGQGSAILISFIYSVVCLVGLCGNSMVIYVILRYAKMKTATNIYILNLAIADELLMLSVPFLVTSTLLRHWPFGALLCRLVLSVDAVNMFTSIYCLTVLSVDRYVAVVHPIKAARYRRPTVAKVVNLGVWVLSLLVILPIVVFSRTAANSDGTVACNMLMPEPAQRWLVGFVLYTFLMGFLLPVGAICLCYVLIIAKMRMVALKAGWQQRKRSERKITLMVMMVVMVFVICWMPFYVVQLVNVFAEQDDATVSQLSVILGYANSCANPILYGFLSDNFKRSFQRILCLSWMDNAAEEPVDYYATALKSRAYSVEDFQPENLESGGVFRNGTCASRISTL
rat SST-R4, sequence (P30937 whole entry): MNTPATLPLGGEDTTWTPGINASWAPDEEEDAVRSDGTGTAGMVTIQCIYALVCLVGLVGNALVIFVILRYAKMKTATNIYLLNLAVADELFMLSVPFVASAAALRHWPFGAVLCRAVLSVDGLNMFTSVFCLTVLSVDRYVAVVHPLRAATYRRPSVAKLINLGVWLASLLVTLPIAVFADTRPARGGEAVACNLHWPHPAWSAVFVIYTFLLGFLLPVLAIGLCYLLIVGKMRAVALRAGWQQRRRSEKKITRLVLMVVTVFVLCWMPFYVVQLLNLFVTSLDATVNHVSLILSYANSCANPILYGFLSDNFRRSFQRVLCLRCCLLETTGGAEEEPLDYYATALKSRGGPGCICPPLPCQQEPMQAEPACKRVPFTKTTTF
rat SST-R2, sequence (P30680 whole entry): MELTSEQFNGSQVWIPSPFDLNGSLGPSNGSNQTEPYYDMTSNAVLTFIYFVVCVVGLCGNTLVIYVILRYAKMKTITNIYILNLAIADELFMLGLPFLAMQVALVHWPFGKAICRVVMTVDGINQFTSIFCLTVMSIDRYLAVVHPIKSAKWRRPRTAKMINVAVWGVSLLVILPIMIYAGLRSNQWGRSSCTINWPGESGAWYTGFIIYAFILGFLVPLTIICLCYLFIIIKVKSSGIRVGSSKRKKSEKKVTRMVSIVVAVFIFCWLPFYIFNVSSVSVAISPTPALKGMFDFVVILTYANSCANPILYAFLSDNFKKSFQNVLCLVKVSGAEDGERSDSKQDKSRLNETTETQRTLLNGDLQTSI
T1 sequence (P30872 whole entry): as the sequence (P28646 whole entry) above, with P8S, T11S, S16P, G20S, V25G, C26G, S32A, S45A, A385T, S389T counted along it
T2 sequence (P31391 whole entry): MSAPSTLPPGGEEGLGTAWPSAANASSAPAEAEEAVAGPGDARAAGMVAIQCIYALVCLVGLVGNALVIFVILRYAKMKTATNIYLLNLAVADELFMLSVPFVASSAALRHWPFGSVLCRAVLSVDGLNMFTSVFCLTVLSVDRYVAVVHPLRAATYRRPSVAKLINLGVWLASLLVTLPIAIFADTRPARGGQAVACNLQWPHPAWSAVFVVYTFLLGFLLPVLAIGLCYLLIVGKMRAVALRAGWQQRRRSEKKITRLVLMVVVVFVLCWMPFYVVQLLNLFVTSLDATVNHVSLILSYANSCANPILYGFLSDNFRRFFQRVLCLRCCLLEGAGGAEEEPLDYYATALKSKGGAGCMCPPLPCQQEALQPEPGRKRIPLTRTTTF
T4 sequence (P35346 whole entry): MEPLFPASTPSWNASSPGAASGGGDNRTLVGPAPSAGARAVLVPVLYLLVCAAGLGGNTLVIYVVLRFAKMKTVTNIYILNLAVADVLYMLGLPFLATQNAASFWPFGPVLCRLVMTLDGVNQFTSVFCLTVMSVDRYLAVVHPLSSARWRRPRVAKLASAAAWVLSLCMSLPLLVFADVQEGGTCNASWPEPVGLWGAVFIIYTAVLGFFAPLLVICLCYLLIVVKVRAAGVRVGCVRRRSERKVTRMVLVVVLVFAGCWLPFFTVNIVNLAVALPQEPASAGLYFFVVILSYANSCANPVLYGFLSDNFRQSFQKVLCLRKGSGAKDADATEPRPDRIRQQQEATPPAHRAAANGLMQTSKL

Turning to `C[C@@H](O)[C@@H]1NC(=O)[C@H](CCCCN)NC(=O)[C@@H](Cc2c[nH]c3ccccc23)NC(=O)[C@H](Cc2ccccc2)NC(=O)[C@@H]2CSSC[C@H](NC1=O)C(=O)N([C@@H](Cc1ccccc1)C(N)=O)CCCNC(=O)CCCN[C@@H](Cc1ccccc1)C(=O)N2` [PTR 3205, PheC3-Cys-Phe-(D)Trp-Lys-Thr-Cys-PheN3-NH2], the IC50 was 349 nM at human SST-R1; 123 nM at human SST-R4; 1.5 nM on human cloned SST-R2; 186 nM at human SST-R5; 323 nM on human SST-R3.

“ReO-MA-Dpr(Gly)-βAla-Dab*-Phe-Trp-(D)Trp-Lys-Thr-Phe-GlyC3*-NH2 [PTR 3399]”: the “binding to SST-R5 (in words)” value at rat SST-R5 was “binds”. The IC50 amounted to 1.3 nM at rat SST-R5 (setting [1]); 1.3 nM at rat SST-R5 (setting [2]); 15 nM on rat SST-R4 (setting [3]); 15 nM on rat SST-R4 (setting [4]); 1.6 nM on rat SST-R2 (setting [5]); 1.6 nM on rat SST-R2 (setting [6]). Besides, the IC50 at rat SST-R3 (setting [7]) was 103 nM; on rat SST-R3 (setting [8]) it was 103 nM; at rat SST-R1 (setting [9]), 156 nM; on rat SST-R1 (setting [10]), 156 nM.

In the case of “ReO-MA-Gly-Gly-Gly-6-aminohexanoic acid-Dab*-Phe-Trp-(D)Trp-Lys-Thr-Phe-GlyC3*-NH2 [PTR 3401]”, the IC50 at rat SST-R5 (setting [1]) was found to be 3.7 nM; on rat SST-R5 (setting [2]) it was 3.7 nM; at rat SST-R4 (setting [3]) it was 20 nM; on rat SST-R4 (setting [4]), 20 nM; on rat SST-R2 (setting [5]), 0.44 nM; on rat SST-R2 (setting [6]) it was 0.44 nM. Also, the IC50 at rat SST-R3 (setting [7]) came out at 110 nM; at rat SST-R3 (setting [8]), 110 nM; on rat SST-R1 (setting [9]), 402 nM; on rat SST-R1 (setting [10]), 402 nM.

Consider “ReO-MA-Dpr(Gly)-Gly-Dab*-Phe-Trp-(D)Trp-Lys-Thr-Phe-GlyC3*-NH2 [ReO-3397]”, for which the IC50 on rat SST-R5 (setting [1]) was 2.2 nM; at rat SST-R5 (setting [2]) it was 2.2 nM; at rat SST-R4 (setting [3]), 3.3 nM; on rat SST-R4 (setting [4]), 3.3 nM; on rat SST-R2 (setting [5]), 0.25 nM; at rat SST-R2 (setting [6]), 0.25 nM. Further, the IC50 on rat SST-R3 (setting [7]) came out at 76 nM; on rat SST-R3 (setting [8]), 76 nM; on rat SST-R1 (setting [9]) it was 89 nM; on rat SST-R1 (setting [10]), 89 nM.

Source of the values: patent publication US20040102364A1, “Backbone cyclized radiolabelled somatostatin analogs” (priority 2001, published 2004).
